Here are results for one compound from ChEMBL document CHEMBL1131242, “6beta-Acetoxynortropane: a potent muscarinic agonist with apparent selectivity toward M2-receptors” (J Med Chem, 1998).

The target of test [1] is Muscarinic acetylcholine receptor M1 (Homo sapiens) (UniProt P11229). As to the kind of experiment: Inhibition of binding of [3H]quinuclidinyl benzilate to human Muscarinic acetylcholine receptor M1 in membranes of transfected CHO cells at 300 uM concentration. As to conditions: Membrane.
Sequence of Muscarinic acetylcholine receptor M1 (Homo sapiens) (P11229 whole entry, looked up): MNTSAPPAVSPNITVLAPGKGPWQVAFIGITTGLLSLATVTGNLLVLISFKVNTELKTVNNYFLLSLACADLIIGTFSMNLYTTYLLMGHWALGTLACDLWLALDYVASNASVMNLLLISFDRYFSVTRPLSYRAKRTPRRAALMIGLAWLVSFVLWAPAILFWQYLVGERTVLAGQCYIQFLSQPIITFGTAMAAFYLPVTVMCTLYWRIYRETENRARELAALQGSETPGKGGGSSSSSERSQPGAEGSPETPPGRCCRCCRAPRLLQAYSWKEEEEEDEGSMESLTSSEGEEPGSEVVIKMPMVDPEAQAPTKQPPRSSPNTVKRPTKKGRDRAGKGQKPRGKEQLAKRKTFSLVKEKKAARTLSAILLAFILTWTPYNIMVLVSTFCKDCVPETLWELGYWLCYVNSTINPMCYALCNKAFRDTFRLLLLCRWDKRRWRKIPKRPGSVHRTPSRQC
Test [2] deals with Muscarinic acetylcholine receptor M3 (Homo sapiens, UniProt P20309). In words: Inhibition of binding of [3H]quinuclidinyl benzilate to human Muscarinic acetylcholine receptor M3 in membranes of transfected CHO cells at 100 uM concentration. Particulars: Membrane.
Sequence of Muscarinic acetylcholine receptor M3 (P20309 whole entry, looked up): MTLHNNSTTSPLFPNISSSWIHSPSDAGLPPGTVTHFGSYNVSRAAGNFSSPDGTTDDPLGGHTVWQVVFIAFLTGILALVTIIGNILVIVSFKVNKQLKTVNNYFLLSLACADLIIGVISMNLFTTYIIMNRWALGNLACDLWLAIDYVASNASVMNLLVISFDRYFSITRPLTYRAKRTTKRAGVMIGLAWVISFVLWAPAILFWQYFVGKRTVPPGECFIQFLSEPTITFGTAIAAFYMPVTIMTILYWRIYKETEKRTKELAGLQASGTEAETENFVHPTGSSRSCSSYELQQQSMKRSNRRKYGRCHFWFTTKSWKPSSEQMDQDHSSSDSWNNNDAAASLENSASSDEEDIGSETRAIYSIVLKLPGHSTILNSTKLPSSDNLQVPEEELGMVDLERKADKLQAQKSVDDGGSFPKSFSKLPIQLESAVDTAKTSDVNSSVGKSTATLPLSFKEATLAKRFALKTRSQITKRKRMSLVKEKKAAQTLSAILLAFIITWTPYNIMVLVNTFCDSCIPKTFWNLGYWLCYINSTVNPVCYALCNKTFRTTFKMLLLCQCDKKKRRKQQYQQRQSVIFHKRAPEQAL

What is called inhibition is the share of the control response that was lost under treatment. Low readings indicate a weak effect, high ones a strong effect. With `CC(=O)OC(C)C[N+](C)(C)C` (configuration not stated) [METHACHOLINE], the inhibition in test [1] is 8%; in test [2] it was 34%.
